In article PMC11555231 (Nature Communications, 2024):
Bridge positions count the residues as written; N and C are the ends. Square brackets hold non-standard residues; d marks the D form. Peptide text beside a SMILES is read from it.

How the values were obtained:
[1] = system: hPADI4-stable mES cells; assay: High content microscopy of citrullinated histone H3 (H3Cit) in hPADI4-stable mES cells; format: cell-based, mouse; details: mean H3Cit intensity, KSR/2i 3 h, range of peptide concentrations
Method: HaLo-GFP-mito HeLa cells were grown in DMEM (Gibco) supplemented with 10% foetal bovine serum (FBS), penicillin/streptomycin (100 µg/ml) and puromycin (1 µg/ml) at 37 °C, 5% CO2. HaLo-GFP-mito HeLa cell line[82] was profiled by short tandem repeat analysis (STR) and tested negative for mycoplasma by the Cell Services Technology Platform at the Francis Crick Institute. E14 –mouse embryonic stem cells (Cambridge Stem Cell Institute, UK) were cultured in plates coated with 1% gelatine in GMEM supplemented with 10% foetal calf serum (FCS) batch-tested for ES cell culture (Gibco), 0.1 mM non-essential amino acids, 2 mM L-glutamine, 1 mM sodium pyruvate, 0.1 mM β-mercaptoethanol and 50 ng/mL leukaemia inhibitory factor (LIF) (ESGRO, Millipore). For PADI4 activation, cells were cultured in GMEM containing 10% knockout serum replacement (KSR, Life Technologies), 1% FCS batch-tested for ES cell culture (Gibco), 0.1 mM non-essential amino acids, L-glutamine, 1 mM sodium pyruvate, 0.1 mM β-mercaptoethanol, 50 ng/mL LIF (ESGRO, Millipore), 1 μM PD0325901 (AxonMedChem) and 3 μM CHIR99021 (AxonMedChem). For the generation of E14 mES stably expressing human PADI4 (hPADI4-stable), human PADI4 cDNA was inserted into ES E14 cells using the piggyBac transposon system. The Gateway system was used to clone human PADI4 into the piggyBac vector using primers PADI4_AttB1_F and PADI4_AttB2_R (Table S4). pPB-CAG-CTRL (empty vector) or pPB-CAG-hPADI4 vectors […] were transfected with the piggyBac transposase (pPBase) expression vector, pCAGPBase […], by lipofection according to the manufacturer’s instructions (Lipofectamine 2000, Invitrogen). E14 cells constitutively expressing the hygromycin resistance gene and human PADI4 were selected and expanded in media containing […] hygromycin.
E14 cells were seeded onto 96-well PerkinElmer cell carrier ultra plates (Phenoplates) coated with 0.1% gelatine, at 25,000 cells per well and grown overnight at 37 °C, 5% CO2. Outer wells were excluded but medium was added to minimise any edge effects. […]

[2] = system: human neutrophils; assay: Ca-ionophore stimulated neutrophils, citrullinated H3 immunostaining and confocal microscopy / immunoblot; format: cell-based; details: 50 µM peptide, pre-incubated 60 min, 5 µM Ca-Ionophore
Method: Peripheral venous blood was isolated from consenting healthy adult volunteers in heparin tubes as previously described. Briefly, blood samples were on Histopaque 1119 (Sigma-Aldrich) and then centrifuged for 20 min at 800 × g. The plasma was collected and centrifuged for a second time for 20 min at 800 × g. The neutrophil layer was collected and washed in Hyclone Hank’s Balanced Salt Solution (HBSS) -Ca, -Mg, -Phenol red (GE Healthcare) supplemented with 10 mM HEPES (Invitrogen) 0.1% FBS and further purified with a discontinuous Percoll (GE Healthcare) gradient consisting of layers with densities of 85, 80, 75, 70 and 65% and centrifuged for 20 min at 800 × g. Neutrophil-enriched layers were then collected and washed, and neutrophil purity was assessed using flow cytometry.
About 5 × 10^4 sorted neutrophils were seeded in 24-well cell culture plates containing glass coverslips in HyClone HBSS +Ca, +Mg, - Phenol red (GE Healthcare) supplemented with 10 mM HEPES (Invitrogen). Neutrophils were stimulated with 5 µM Ca-Ionophore (Sigma) and fixed for 20 min at room temperature with 2% paraformaldehyde at RT. Cells were then washed and permeabilized with 0.5% Triton X-100 in PBS. Non-specific binding was blocked with 2% BSA (Sigma) and 2% donkey serum (Sigma) in PBS. Samples were stained with DAPI (Life Technologies), the rabbit anti-CitH3 (Abcam; ab5103 1:500) and donkey anti-rabbit alexa488 (Invitrogen; A21206). Fluorescence imaging was performed on a Leica TCS SP8 inverted confocal microscope using sequential scan in between frames mode with a 20x objective.
Neutrophil samples were boiled in a sodium dodecyl sulphate (SDS) buffer containing dithiothreitol (DTT) and run on a polyacrylamide gel electrophoresis (SDS-PAGE) using Criterion TGX precast gels (Any-KD; Bio-Rad Laboratories). Proteins were then transferred to a PVDF membrane (Bio-Rad Laboratories) via semi-dry transfer. The membrane was blocked with 5% BSA (Fisher Scientific) in Tris-buffered saline with 0.1% Tween-20 (TBS-T). Levels of citrullinated histone H3, total H3 and myeloperoxidase (MPO) were assessed by incubating membranes in either anti-histone H3 citrulline R2 + R8 + R17 (Abcam; ab5103 1:1000), anti-histone H3 (Millipore; 07-690 1:10000) or anti-MPO (DAKO; A0398 1:2500) overnight at 4 °C, respectively. For cell lysate-based assays and pull-down assays, membranes were incubated as above with anti-hPADI4 (Abcam; ab50332; 1:1000 in 5% BSA/TBS-T), anti-Bcr (Cell Signalling #3902S; 1:1000 in 3% milk/TBS-T) and anti-Impdh2 (Cell Signalling #57068S; 1:1000 in 3% milk/TBS-T). Membranes were washed in 0.1% TBS-T and subsequently incubated with goat anti-rabbit HRP or anti-goat (Fisher Scientific) for 1 h, followed by final washes in 0.1% TBS-T. Membranes were imaged with enhanced chemiluminescent substrate (ECL) (Thermo Fisher) on a Bio-Rad imager.

## N=C(N)NCCC[C@@H]1NC(=O)[C@H](CC(=O)O)NC(=O)[C@@H](Cc2ccc(O)cc2)NC(=O)CSC[C@@H](C(=O)NCC(N)=O)NC(=O)[C@H](Cc2ccc(O)cc2)NC(=O)[C@H](CCCCN)NC(=O)[C@@H]2CCCN2C(=O)[C@H](Cc2c[nH]cn2)NC(=O)[C@H](CCCNC(=N)N)NC(=O)[C@H](Cc2ccc(O)cc2)NC(=O)[C@H](Cc2c[nH]cn2)NC(=O)[C@H](Cc2c[nH]cn2)NC1=O [PADI4_3i] ({CH2CO}-[dY]DRHHYRHPKYCG-NH2; thioether N-12)
[1]
  inhibition of intracellular PADI4 (in words): no inhibition
[2]
  H3Cit levels in neutrophils treated with calcium ionophore: neither response was affected
